Patent publication US11891634B2, “PDE5A destabilizing domains” (The Board of Trustees of the Leland Stanford Junior …, priority 2017, dated 2024)

Legend:
AcGFP = experiment: Comparison of N-terminal and C-terminal PDE5A derived DD (FACS); assay type: cell-based, human; conditions: 24 hours
Experimental: The ability of PDE5A derived DDs to destabilize a protein of interest may depend on the position whether the DD is appended to the N terminus or the C terminus of the protein of interest. Mutant #2, and mutant #41 were appended either to the N terminus or C terminus of AcGFP and analyzed using the cell-based screening assay described previously to identify destabilizing domains. Cells were split into two treatment groups and incubated with either Sildenafil (10 μM) or vehicle alone for 24 hours. Cells that were mock transduced or transduced with the N terminal fused wild-type PDE5A or PDE5AN (#40) constructs were also included in the analysis. The results are presented in Table 8 where the C terminal PDE5A mutants are denoted as PDE5AC and N terminal PDE5A mutants are denoted as PDE5AN.
The stabilization ratio was calculated as the fold change in GFP intensity of the AcGFP-PDE5A construct in Sildenafil treated sample compared to vehicle alone treated sample.

[1] = tested on: NIH3T3 cells expressing AcGFP-PDE5A fusions; experiment: Immunoblot analysis of AcGFP-PDE5A fusions (anti-XFP / anti-HA); assay type: cell-based, mouse; conditions: 10 μM Sildenafil or vehicle alone, 24 hours
Experimental: Identified PDE5A mutants were further validated using immunoblot analysis. NIH3T3 cells expressing AcGFP-PDE5A fusions were incubated with 10 μM Sildenafil or vehicle alone for 24 hours and the stability of PDE5A mutants was evaluated at the protein level. Cell lysates obtained from transduced NIH3T3 cells were immunoblotted using the anti-XFP antibody (1:3000) at 4° C. overnight. Samples were also immunoblotted with anti-GAPDH antibody (1:10000) to ensure uniform protein loading. Samples were then incubated with secondary anti-mouse antibody (1:3000) at room temperature for 1 hour, followed by visualization using appropriate methods. […] The difference in band intensity recapitulates the pattern from the FACS analysis.
A hemagglutinin (HA) sequence (SEQ ID NO. 74; encoded by SEQ ID NO. 75) was cloned in-frame at either the 5′- or 3′-ends of the PDE5A mutant sequence from PDE5AC (#41). The construct further included AcGFP (amino acids 1-239 of WT) at the N terminus (SEQ ID NO. 76, encoded by SEQ ID NO. 77) and an EF linker/EcoRI restriction site (GAATTC). […] The effect of the HA sequence on ligand dependent stabilization was evaluated via immunoblot analysis. […] As show in FIG. 3, HA-tagged fusion protein expression detected with either anti-XFP antibody or anti-HA antibody was nearly identical. […]

[2] = tested on: NIH3T3 cells expressing AcGFP-PDE5A variants; experiment: Sildenafil dose dependency (FACS, percentage of max MFI); assay type: cell-based, mouse; conditions: Sildenafil 0.003 μM to 30 μM, read-out: half maximal effective concentration or EC50
Experimental: NIH3T3 cells expressing AcGFP-PDE5A variants were incubated with varying concentrations of Sildenafil ranging from 0.003 μM to 30 μM. The stability of PDE5A mutants was measured using FACS and mean fluorescence intensity (MFI) of GFP was calculated. […] Percentage of max MFI (%) was calculated as the ratio of the MFI at a ligand concentration compared to the maximum MFI. Percentage of max MFI was plotted against the concentration of Sildenafil presented in a log scale. Titration curves of PDE5AC (#2) and PDE5AC (#41) are presented in FIG. 4A and FIG. 4B, respectively. […] The half maximal effective concentration or EC50 was approximately 0.5 μM for PDE5AC (#2) and 2 μM for PDE5AC (#41).

[3] = tested on: NIH3T3 cells expressing AcGFP-PDE5A fusions; experiment: FACS analysis of C-terminal PDE5A mutants (AcGFP-PDE5A fusions), Sildenafil vs vehicle; assay type: cell-based, mouse; conditions: for Mean Fluorescence intensity: NIH3T3; for Stabilization ratio: Table 4, Sildenafil 10 μM vs vehicle alone
Experimental: The NIH3T3 cell line was cultured in DMEM supplemented with 10% heat-inactivated donor bovine serum (Invitrogen), 2 mM glutamine, 100 U/ml penicillin and 100 μg/ml streptomycin.
The ΦNX ecotropic packaging cell line was transfected using standard Lipofectamine 2000 protocols. Viral supernatants were harvested 48 hours, post transfection, filtered and concentrated 10-fold using Amicon Ultra centrifugal filter device with a 100kDa cutoff. NIH 3T3 cells were incubated with concentrated retroviral supernatants supplemented with 4 μg/ml polybrene for 4 hours at 37° C. Cells were washed once with PBS and cultured in growth media for 24-36 hours to allow for viral integration.
The transduced NIH3T3 cells were subjected to analysis using fluorescence-activated cell sorting (FACS) to screen the libraries of PDE5A mutants. 24 hours prior to analysis, transduced NIH3T3 cells were plated at 1×10^5 cells per well of a 12-well plate. Cells were removed from the plate using PBS and 2 mM EDTA, washed once with PBS, and resuspended in 200 μL, PBS. FACS analysis was performed on instruments at the Stanford Shared FACS Facility with 10,000 events represented.
To identify destabilizing domains that are responsive to the PDE5A ligand, Sildenafil, a cell-based screening assay was employed in which the fluorescence of green fluorescent protein derived from Aequorea coerulescens (AcGFP) served as an indicator of PDE5A stability. A library based on the PDE5A catalytic domain sequences was generated using error prone PCR and then cloned in-frame in front of AcGFP. A Moloney murine leukemia retroviral expression was used to stably integrate this library of PDE5A-AcGFP fusions into NIH-3T3 fibroblasts, and the transduced cells were subjected to three rounds of sorting using flow cytometry. In the first round, cells were treated with 10 μM of PDE5A ligand, Sildenafil for 16-24 before analysis. Fluorescent cells were collected and further cultured in the absence of ligand for 60 hours.
A library of AcGFP-PDE5A fusions i.e., C-terminal PDE5A mutants was screened using the cell-based screening assay described previously to identify C-terminal destabilizing domains. […] Identified candidates were subjected to further characterization by FACS. Cells were split into two treatment groups and incubated with either Sildenafil (10 μM) or vehicle alone for 24 hours. Cells that were mock transduced or transduced with the wild-type PDE5A construct were also included in the analysis. The stabilization ratio was calculated as the fold change in GFP intensity of the AcGFP-PDE5A construct in Sildenafil treated sample compared to vehicle alone treated sample. The results are presented in Table 2 where the C terminal PDE5A mutants are denoted as PDE5AC.
Residue D764 was identified as a mutational hotspot from sequence analysis. PDE5AC (#41) was engineered with either D764N or D764G mutation via site-directed mutagenesis. PDE5AC (#41) +D764N comprises the amino acid sequence of SEQ ID NO. 53 (encoded by SEQ ID NO. 54) and PDE5AC (#41) +D764G comprises the amino acid sequence of SEQ ID NO. 55 (encoded by SEQ ID NO. 56). AcGFP-PDE5A variants were evaluated for Sildenafil dependent stabilization via FACS as described previously. Results from FACS analysis are presented in Table 4 where the C terminal PDE5A mutants are denoted as PDE5AC. The stabilization ratio was calculated as the fold change in GFP intensity of the AcGFP-PDE5A construct in Sildenafil treated sample compared to vehicle alone treated sample.
Extended versions of human PDE5A that included residues in addition to catalytic domain (residues 535-860 of SEQ ID NO. 1) with Q589R polymorphism (SEQ ID NO. 11) were evaluated for use as C-terminal destabilizing domains. Three extended PDE5A sequences were tested that consisted of residues 535-875 of SEQ ID NO. 1 with Q589R polymorphism (SEQ ID NO. 13); residues 466-875 of SEQ ID NO. 1 with Q589R polymorphism (SEQ ID NO. 15); or residues 420-875 of SEQ ID NO. […]

[4] = Table 2, Sildenafil (10 μM) +, 24 hours
[5] = Table 2, Sildenafil (10 μM) −, vehicle alone, 24 hours
[6] = Table 4 (D764 mutations), Sildenafil (10 μM) +
[7] = Table 4 (D764 mutations), Sildenafil (10 μM) −

For “PDE5AC (#2): AcGFP fused to C-terminal DD 535-860 of PDE5A (Q589R, D687A, D764N, S815C), SEQ ID NO. 23”, the “Mean FITC-A DMSO” value (AcGFP) was 1342, the “Mean FITC-A Sildenafil (10 μM)” value (AcGFP) was 5030 and the “Fusion protein expression / ligand dependent stabilization by immunoblot” value [1] was “most drastic difference in the intensity of the bands”. For the same substance, the EC50 [2] was ~500 nM, the “Mean Fluorescence intensity” value [3, 4] was 6577 and the “Mean Fluorescence intensity” value [3, 5] was 1023. The “Mean Fluorescence intensity” value [3, 6] was 3483, the “Mean Fluorescence intensity” value [3, 7] was 671 and the Stabilization ratio [3] was 5.2.
For “PDE5AC (#41): AcGFP fused to C-terminal DD 535-860 of PDE5A (F561L, Q589R, K604E, D724N, L797F), SEQ ID NO. 27”, the “Mean FITC-A DMSO” value (AcGFP) was 1443, the “Mean FITC-A Sildenafil (10 μM)” value (AcGFP) was 4620 and the “Fusion protein expression / ligand dependent stabilization by immunoblot” value [1] was “most drastic difference in the intensity of the bands”. For the same substance, the EC50 [2] was ~2000 nM, the “Mean Fluorescence intensity” value [3, 4] was 6115 and the “Mean Fluorescence intensity” value [3, 5] was 1000. The “Mean Fluorescence intensity” value [3, 6] was 4647, the “Mean Fluorescence intensity” value [3, 7] was 734 and the Stabilization ratio [3] was 6.3.
